Measured values reported in ChEMBL document CHEMBL5335813, “Gausemycin Antibiotic Family Acts via Ca2+-Dependent Membrane Targeting” (2024).
≈ marks a conversion by molar mass, not a printed value. Calls of active or inactive are those of the source. The rule behind the calls is not given here.

Key:
[1] = test system: Staphylococcus aureus; assay: Antimicrobial activity against Staphylococcus aureus ATCC 29213 assessed as microbial growth inhibition at pH 5 to 6 by susceptibility testing method; format: functional, organism-based
[2] = test system: Staphylococcus aureus; assay: Antimicrobial activity against Staphylococcus aureus ATCC 29213 assessed as microbial growth inhibition measured after 18 hrs by CLSI based broth microdilution method; format: functional
[3] = test system: Staphylococcus aureus; assay: Antimicrobial activity against Staphylococcus aureus ATCC 29213 assessed as microbial growth inhibition at pH 5 to 6 by microdilution method; format: functional, organism-based

Row | Compound | MIC [2] [µg/mL] | also measured
1 | NCC[C@H](O)C(=O)N[C@@H]1C[C@H](N)[C@@H](O[C@H]2O[C@H](CN)[C@@H](O)[C@H](O)[C@H]2O)[C@H](O)[C@H]1O[C@H]1O[C@H](CO)[C@@H](O)[C@H](N)[C@H]1O |  | growth inhibition (GI) [1]: Active
2 | CC(C)/C=C/C=C\C(=O)NCCC(=O)N[C@@H](CCCN)C(=O)NC(CC(O)c1ccccc1)C(=O)NC(C(=O)N[C@@H](Cc1ccc(O)cc1)C(=O)NC1C(=O)N[C@H](CC(C)C)C(=O)N[C@@H](CC(=O)O)C(=O)NCC(=O)N[C@@H](CO)C(=O)NCC(=O)N[C@@H](CC(=O)c2ccc(Cl)cc2N)C(=O)N[C@@H](C)C(=O)N2CCC[C@H]2C(=O)NC1C)C(O)CC(=O)O (stereo not given in full) | 8 (≈ 4.66 µM) | 
3 | CCCCCCCCCC(=O)N[C@@H](Cc1c[nH]c2ccccc12)C(=O)N[C@H](CC(N)=O)C(=O)N[C@@H](CC(=O)O)C(=O)N[C@@H]1C(=O)NCC(=O)N[C@@H](CCCN)C(=O)N[C@@H](CC(=O)O)C(=O)N[C@H](C)C(=O)N[C@@H](CC(=O)O)C(=O)NCC(=O)N[C@H](CO)C(=O)N[C@@H]([C@H](C)CC(=O)O)C(=O)N[C@@H](CC(=O)c2ccccc2N)C(=O)O[C@@H]1C |  | growth inhibition (GI) [3]: Active
4 | CC(C)/C=C/C=C\C(=O)NCCC(=O)N[C@@H](CCCNC(=O)CCN)C(=O)NC(CC(O)c1ccccc1)C(=O)NC(C(=O)N[C@@H](Cc1ccc(O)cc1)C(=O)NC1C(=O)N[C@H](CC(C)C)C(=O)N[C@@H](CC(=O)O)C(=O)NCC(=O)N[C@@H](CO)C(=O)NCC(=O)N[C@@H](CC(=O)c2ccc(Cl)cc2N)C(=O)N[C@@H](C)C(=O)N2CCC[C@H]2C(=O)NC1C)C(O)CC(=O)O (stereo not given in full) | 8 (≈ 4.48 µM) | 
5 | CNCCC(=O)NCCC[C@H](NC(=O)CCNC(=O)/C=C\C=C\C(C)C)C(=O)NC(CC(O)c1ccccc1)C(=O)NC(C(=O)N[C@@H](Cc1ccc(OC2OC[C@H](O)[C@H](O)[C@H]2O)cc1)C(=O)NC1C(=O)N[C@H](CC(C)C)C(=O)N[C@@H](CC(=O)O)C(=O)NCC(=O)N[C@@H](CO)C(=O)NCC(=O)N[C@@H](CC(=O)c2ccc(Cl)cc2N)C(=O)N[C@@H](C)C(=O)N2CCC[C@H]2C(=O)NC1C)C(O)CC(=O)O (stereo not given in full) | 4 (≈ 2.07 µM) | 
